We go through five compounds from US5246929A, “Naphtho thiazine (or oxaline) derivatives and preparations thereof” (Tanabe Seiyaku Co., Ltd., priority 1990, dated 1993).

Common to all, as to format: in vivo
In data set [1] the test system is cerebral anoxia induced by potassium cyanide. The data set is described as follows: Activity for protecting cerebral anoxia induced by potassium cyanide (survival time). The conditions noted are these: 10 mg/kg orally, mice; potassium cyanide 2.4 mg/kg tail vein one hour later.
In the next data set the test system is mice. The experiment in a line: Acute oral toxicity in mice. The conditions noted are these: 500 mg/kg orally, 7 days. The text has this:
The compounds (I) of this invention can inhibit the calcium entrance into the cerebral synaptosome and show excellent central calcium antagonistic activity and/or excellent calcium antagonistic activity in cerebral blood vessel, and can be used for the treatment and prophylaxis of cerebral diseases due to cerebral blood flow disorder at acute and chronic periods, for example, subarachnoid hemorrhage, cerebral infarction, etc. The compounds (I) of this invention have also an activity for protecting cerebral neurocyte. For example, when 2-(4-chlorophenyl)-4-(diethylamino)acetyl-3,4-dihydro-2H-1,4-benzothiazinewas intraperitoneally administered to evanescent cerebral ischemic rats with ligating four vessels in a dose of 1.5 mg/kg twice a day for four days, it increased the number of normal pyramidal cells at hippocampul CA1 region in about 90% in comparison with the non-medicated group. Accordingly, the compounds (I) of this invention can effectively be used for the prophylaxis, treatment and amelioration of sequelae of cerebral neurocyte dyscrasia, for example, disturbances of consciousness (e.g. somnolenz, sopor, coma, stupor, clouding of consciousness, etc.), motor paralysis (e.g. parkinsonism, etc.), cerebral neuropathy (e.g. dysuria, etc.), speech and language disorders (e.g. articulation disorders, aphasia, semantic aphasia, etc.), sensitive disorders (e.g. pain, sysesthesia, heat sensibility disorder, etc.), psychological disorders (e.g. dementia, hallucination, delusion, delirium, poriomania, melancholia, neurosis, emotional incontinence, etc.), and the like, and further the prophylaxis of palindromia and also the prophylaxis of exacerbation and progression of the symptoms. […] In addition, the compounds (I) of this invention have low toxicity and has high safety.

Data set [2] has as its system normal pyramidal cells at hippocampul CA1 region. The data set is described as follows: Number of normal pyramidal cells in evanescent cerebral ischemic rats with ligating four vessels. To be noted: 1.5 mg/kg intraperitoneally twice a day for four days, four vessels ligated. From the text:
The compounds (I) of this invention can inhibit the calcium entrance into the cerebral synaptosome and show excellent central calcium antagonistic activity and/or excellent calcium antagonistic activity in cerebral blood vessel, and can be used for the treatment and prophylaxis of cerebral diseases due to cerebral blood flow disorder at acute and chronic periods, for example, subarachnoid hemorrhage, cerebral infarction, etc. The compounds (I) of this invention have also an activity for protecting cerebral neurocyte. For example, when 2-(4-chlorophenyl)-4-(diethylamino)acetyl-3,4-dihydro-2H-1,4-benzothiazinewas intraperitoneally administered to evanescent cerebral ischemic rats with ligating four vessels in a dose of 1.5 mg/kg twice a day for four days, it increased the number of normal pyramidal cells at hippocampul CA1 region in about 90% in comparison with the non-medicated group. […]

Counter-ions that a name gives are not always drawn.

In the case of “4-(dimethylamino)acetyl-2-(4-fluorophenyl)-3,4-dihydro-2H-1,4-benzothiazine oxalate [Example 1]”, the “Prolonging rate of survival time” value in data set [1] was 62%. As for `CN(C)CCCN1C(=O)C(c2cccc(C(F)(F)F)c2)Sc2ccc3ccccc3c21.O=C(O)C(=O)O` (centres unmarked) [1-[3-(dimethylamino)propyl]-3-(3-trifluoromethylphenyl)-1H-naphtho[2,1-b][1,4]thiazin-2(3H)-one oxalate], the mortality of mice result in the data set on mice was “no mouse died even after 7 days”. `CCN(CC)CC(=O)N1CC(c2ccc(Cl)cc2)Sc2ccccc21` (centres unmarked) [2-(4-chlorophenyl)-4-(diethylamino)acetyl-3,4-dihydro-2H-1,4-benzothiazine]: the “increase of the number of normal pyramidal cells at hippocampul CA1 region in comparison with the non-medicated group” value in data set [2] is “about 90%”. As to `CCN(CC)CC(=O)N1CC(c2ccc(Cl)cc2)Sc2ccccc21` (centres unmarked) [2-(4-chlorophenyl)-4-(diethylamino)acetyl-3,4-dihydro-2H-1,4-benzothiazineoxalate], in the data set on mice, the mortality of mice entry is on record as “no mouse died even after 7 days”. With `CCN(CC)CC(=O)N1CC(c2ccc(Cl)cc2)Sc2ccc3ccccc3c21` (centres unmarked) [3-(4-chlorophenyl)-1-(diethylamino)acetyl-2,3-dihydro-1H-naphtho[2,1-b][1,4]thiazine oxalate], the mortality of mice result with mice is on record as “no mouse died even after 7 days”.
